What was measured:
Test in all cases: SILAC LC-MS ATP acyl phosphate probe competition, native kinases in HEK293T
Format in all cases: binding
[1] = target: T1, KS6A1 (Ribosomal protein S6 kinase alpha 1) (Homo sapiens, UniProt Q15418); settings: site ACT; ATP 1 mM; Ketanserin, Ritanserin 100 μM; RF001 1 mM
T1 construct: measured against >50 native kinases quantified in HEK293T soluble proteomes; endogenous in cells; host or cells: HEK293T soluble proteome
Protocol: (§1) Proteomes were diluted to 2 mg/ml in kinase buffer. The light and heavy proteomes (0.5 mg, 250 μL total reaction volume) were pre-treated with vehicle or compound, respectively (5 μL, DMSO (light) or 50× stock in DMSO (heavy)), mixed gently, and incubated at 25° C. for 30 min. […] After incubation, matched light and heavy proteomes were transferred and mixed in a 1:1 ratio in a two-dram vial containing 4:1:3 MeOH/CHCl3/H2O (2 mL MeOH, 500 AL CHCl3, 1.5 mL H2O) for extraction of proteins to remove excess probe, quickly vortexed, and centrifuged at 1,400×g for 3 min to pellet protein. Organic and aqueous layers were removed using a Pasteur pipette, and the protein pellet was transferred to a screw-top tube in 600 μL MeOH. A second extraction was performed by adding CHCl3 (150 μL) and H2O (600 μL) to each sample, vortexed, and centrifuged at 1,400×g for 3 min to pellet protein. Organic and aqueous layers were removed by pipetting. MeOH added to pellet (600 μL) and pellets were re-suspended by sonication (3×1 sec pulse, 20% amplitude) for a final extraction. Samples were then centrifuged at 17,000×g for 5 min to pellet protein and MeOH was removed by pipetting. The pellets were re-suspended in 10 M urea/25 mM ammonium bicarbonate ([…]), brought to a final volume of 1 mL with 25 mM ammonium bicarbonate, reduced with 10 mM DTT for 15 min at 65° C. allowed to cool, and then alkylated with 40 mM iodoacetamide for 30 min at 25° C. in the dark. To desalt the samples, each was transferred to a two-dram glass vial, and to the vial 4:1:2 MeOH/CHCl3/H2O (2 mL MeOH, 500 AL CHCl3, 1 mL H2O) was added. The vials were vortexed quickly, spun at 1.400×g for 3 min to pellet protein, and aqueous and organic layers were removed using a Pasteur pipette. The resulting protein pellet was transferred to a screw-top tube in 600 μL MeOH, and then CHCl3 (150 μL) and HO (600 μL) were added to extract protein a second time. The samples were vortexed quickly, centrifuged at 1,400×g to pellet protein, and the aqueous and organic layers were removed by pipetting. Resulting protein pellet was suspended in MeOH (600 μL) via sonication (3×1 sec pulse, 20% amplitude), centrifuged at 17,000×g for 5 min to pellet protein, and MeOH removed by pipetting. Protein pellets were then re-suspended in 25 mM ammonium bicarbonate (500 μL) and digested with 7.5 μg Trypsin/Lys-C(Promega, 15 μL, 0.5 μg/μL) for 3 h at 37° C. Avidin-agarose beads (Thermo Scientific Pierce, 100 AL aliquot per sample) were washed three times by adding 10 mL DPBS, centrifuged at 1,400×g for 1 min, and decanting. This wash step was repeated for a total of 3 times. Digested protein samples were mixed with washed avidin beads (100 μL) and brought to a volume of 5.5 mL with DPBS in a 15 mL conical and rotated for 1 h to enrich samples for the covalent desthiobiotin modification. The beads were washed with 25 mM ammonium bicarbonate (3× with 10 mL, centrifuge at 1,400×g for 3 min, decant) and then H2O (3× with 10 mL, centrifuge at 1,400×g for 3 min, decant). Washed beads were then transferred to a low-bind microfuge tube, centrifuged at 1,400×g for 3 min, allowed to rest for 1 min to settle beads, and then excess H2O was removed carefully using a gel-loading pipette tip. To elute peptides, 100 μL of elution buffer (50% acetonitrile, ACN; 0.1% formic acid) was added to each sample and incubated for 3 min. Beads were spun down at 1.400×g for 3 min, allowed to rest for 1 min to settle beads, and then 75 μL of peptide-containing supernatant was removed carefully using a gel-loading pipette tip and transferred to a new low bind centrifuge tube. This step was repeated two more times with 75 μL of elution buffer and all eluent were collected into the same centrifuge tube (˜225 μL total). Peptides were dried on a speed vacuum, resulting peptide samples acidified in 5% (v/v) formic acid, and stored at −80° C. until analysis.
(§2) The peptide samples were analyzed by liquid chromatography-mass spectrometry. […]

[2] = target: T2, KS6B1 (Ribosomal protein S6 kinase 1, p70 S6 kinase alpha) (Homo sapiens, UniProt P23443); settings: site Lys2; ATP 1 mM; Ketanserin, Ritanserin 100 μM; RF001 1 mM
T2 construct: measured against >50 native kinases quantified in HEK293T soluble proteomes; endogenous in cells; host or cells: HEK293T soluble proteome
T2 sequence (P23443 whole entry): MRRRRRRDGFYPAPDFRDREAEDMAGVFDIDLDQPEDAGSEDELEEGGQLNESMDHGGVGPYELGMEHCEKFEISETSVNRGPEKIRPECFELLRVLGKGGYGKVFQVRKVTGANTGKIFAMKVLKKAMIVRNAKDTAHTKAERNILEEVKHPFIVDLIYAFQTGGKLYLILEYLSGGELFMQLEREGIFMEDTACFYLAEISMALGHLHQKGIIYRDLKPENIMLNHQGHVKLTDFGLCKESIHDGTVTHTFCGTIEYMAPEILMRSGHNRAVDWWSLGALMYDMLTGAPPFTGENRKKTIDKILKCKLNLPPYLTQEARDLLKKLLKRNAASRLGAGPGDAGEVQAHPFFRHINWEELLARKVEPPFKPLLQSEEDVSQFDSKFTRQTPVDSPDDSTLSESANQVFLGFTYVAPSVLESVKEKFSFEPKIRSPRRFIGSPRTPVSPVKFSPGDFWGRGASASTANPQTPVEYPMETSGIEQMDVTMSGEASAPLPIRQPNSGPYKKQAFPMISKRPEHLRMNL
Protocol: as §1, §2

[3] = target: T3, SMG1 (Serine/threonine-protein kinase SMG1) (Homo sapiens, UniProt Q96Q15); settings: site ATP; ATP 1 mM; Ketanserin, Ritanserin 100 μM; RF001 1 mM
T3 construct: Native kinases; endogenous in cells; host or cells: HEK293T soluble proteome
Protocol: as §1, §2

[4] = target: T4, MP2K6 (Dual specificity mitogen-activated protein kinase kinase 6) (Homo sapiens, UniProt P52564); settings: site Lys1; ATP 1 mM; Ketanserin, Ritanserin 100 μM; RF001 1 mM
T4 construct: Native kinases; endogenous in cells; host or cells: HEK293T soluble proteome
T4 sequence (P52564 1-334): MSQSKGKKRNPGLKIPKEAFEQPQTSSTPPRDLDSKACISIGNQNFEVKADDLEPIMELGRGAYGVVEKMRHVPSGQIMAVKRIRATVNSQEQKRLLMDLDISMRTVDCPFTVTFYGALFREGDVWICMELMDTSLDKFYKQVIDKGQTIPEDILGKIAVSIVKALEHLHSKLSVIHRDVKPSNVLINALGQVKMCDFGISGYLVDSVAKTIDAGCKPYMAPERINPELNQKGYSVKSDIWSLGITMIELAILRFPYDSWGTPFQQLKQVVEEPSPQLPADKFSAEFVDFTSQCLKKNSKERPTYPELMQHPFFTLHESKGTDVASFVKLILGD
Protocol: as §1, §2

[5] = target: T5, IRAK1 (Interleukin-1 receptor-associated kinase 1) (Homo sapiens, UniProt P51617); settings: site Lys2; ATP 1 mM; Ketanserin, Ritanserin 100 μM; RF001 1 mM
T5 construct: measured against >50 native kinases quantified in HEK293T soluble proteomes; endogenous in cells; host or cells: HEK293T soluble proteome
T5 sequence (P51617 whole entry): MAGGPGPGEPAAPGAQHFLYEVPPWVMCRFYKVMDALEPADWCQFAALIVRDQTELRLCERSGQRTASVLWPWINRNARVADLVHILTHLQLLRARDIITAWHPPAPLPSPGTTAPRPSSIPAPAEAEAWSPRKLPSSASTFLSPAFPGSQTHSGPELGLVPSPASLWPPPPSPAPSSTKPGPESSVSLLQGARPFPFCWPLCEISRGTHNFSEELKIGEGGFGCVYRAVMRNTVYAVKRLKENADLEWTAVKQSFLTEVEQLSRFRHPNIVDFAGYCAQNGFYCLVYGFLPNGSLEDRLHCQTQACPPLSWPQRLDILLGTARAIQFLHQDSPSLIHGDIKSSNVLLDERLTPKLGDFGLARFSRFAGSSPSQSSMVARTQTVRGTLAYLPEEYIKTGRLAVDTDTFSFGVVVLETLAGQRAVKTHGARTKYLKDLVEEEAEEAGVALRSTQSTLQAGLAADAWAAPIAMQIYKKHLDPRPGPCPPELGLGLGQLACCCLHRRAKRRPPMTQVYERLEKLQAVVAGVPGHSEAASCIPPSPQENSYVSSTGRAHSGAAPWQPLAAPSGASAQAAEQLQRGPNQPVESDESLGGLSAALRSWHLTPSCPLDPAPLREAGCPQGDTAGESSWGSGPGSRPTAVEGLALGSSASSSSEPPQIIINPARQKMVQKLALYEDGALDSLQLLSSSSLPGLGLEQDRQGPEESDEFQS
Protocol: as §1, §2

[6] = target: T6, FER (Proto-oncogene tyrosine-protein kinase FER) (Homo sapiens, UniProt P16591); settings: site Lys1 (K591); ATP 1 mM; Ketanserin, Ritanserin 100 μM; RF001 1 mM
T6 construct: measured against >50 native kinases quantified in HEK293T soluble proteomes; endogenous in cells; host or cells: HEK293T soluble proteome
T6 sequence (P16591 whole entry): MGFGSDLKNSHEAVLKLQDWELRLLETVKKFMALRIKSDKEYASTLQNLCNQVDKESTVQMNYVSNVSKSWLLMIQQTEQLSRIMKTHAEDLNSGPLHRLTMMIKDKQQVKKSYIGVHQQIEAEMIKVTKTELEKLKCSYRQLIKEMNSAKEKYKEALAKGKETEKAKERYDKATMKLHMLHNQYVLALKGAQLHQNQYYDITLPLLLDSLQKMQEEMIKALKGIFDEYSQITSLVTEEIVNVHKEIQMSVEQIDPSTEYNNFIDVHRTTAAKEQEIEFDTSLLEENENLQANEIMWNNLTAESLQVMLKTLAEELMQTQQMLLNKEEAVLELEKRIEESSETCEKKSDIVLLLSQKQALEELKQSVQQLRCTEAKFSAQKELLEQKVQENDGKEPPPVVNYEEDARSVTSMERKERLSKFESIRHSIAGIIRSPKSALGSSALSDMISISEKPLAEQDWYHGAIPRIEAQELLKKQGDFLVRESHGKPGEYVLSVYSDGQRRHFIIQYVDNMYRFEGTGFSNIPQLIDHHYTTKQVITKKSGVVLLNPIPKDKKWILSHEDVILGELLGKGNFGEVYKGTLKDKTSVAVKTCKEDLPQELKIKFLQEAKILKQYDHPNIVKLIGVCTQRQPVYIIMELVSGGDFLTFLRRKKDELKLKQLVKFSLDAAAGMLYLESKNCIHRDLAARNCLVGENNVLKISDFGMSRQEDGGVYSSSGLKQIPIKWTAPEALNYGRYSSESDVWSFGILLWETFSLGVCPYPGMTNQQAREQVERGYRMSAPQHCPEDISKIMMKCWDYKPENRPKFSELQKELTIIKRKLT
Protocol: as §1, §2

[7] = target: T7, CDK2 (Cell division protein kinase 2) (Homo sapiens, UniProt P24941); settings: site Lys2; ATP 1 mM; Ketanserin, Ritanserin 100 μM; RF001 1 mM
T7 construct: measured against >50 native kinases quantified in HEK293T soluble proteomes; endogenous in cells; host or cells: HEK293T soluble proteome
Protocol: as §1, §2

[8] = target: T8, E2AK2 (Interferon-induced, double-stranded RNA-activated protein kinase) (Homo sapiens, UniProt P19525); settings: site Lys2; ATP 1 mM; Ketanserin, Ritanserin 100 μM; RF001 1 mM
T8 construct: measured against >50 native kinases quantified in HEK293T soluble proteomes; endogenous in cells; host or cells: HEK293T soluble proteome
T8 sequence (P19525 whole entry): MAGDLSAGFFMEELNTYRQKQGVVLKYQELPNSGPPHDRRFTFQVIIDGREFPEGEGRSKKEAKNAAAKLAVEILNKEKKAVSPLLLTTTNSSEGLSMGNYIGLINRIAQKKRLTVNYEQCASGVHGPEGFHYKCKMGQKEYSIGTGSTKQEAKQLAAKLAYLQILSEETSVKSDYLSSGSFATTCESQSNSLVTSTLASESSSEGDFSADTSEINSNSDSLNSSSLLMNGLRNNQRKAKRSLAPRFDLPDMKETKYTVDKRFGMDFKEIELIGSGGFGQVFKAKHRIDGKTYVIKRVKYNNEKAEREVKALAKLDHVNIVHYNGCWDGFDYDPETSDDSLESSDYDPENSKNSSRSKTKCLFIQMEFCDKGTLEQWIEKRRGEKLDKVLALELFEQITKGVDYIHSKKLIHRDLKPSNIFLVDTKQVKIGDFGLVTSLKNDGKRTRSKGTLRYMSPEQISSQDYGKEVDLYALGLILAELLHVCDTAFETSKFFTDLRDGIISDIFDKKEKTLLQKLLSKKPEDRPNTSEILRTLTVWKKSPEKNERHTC
Protocol: as §1, §2

[9] = target: T9, KCC2G (Calcium/calmodulin-dependent protein kinase type II gamma chain) (Homo sapiens, UniProt Q13555); settings: site Lys1; ATP 1 mM; Ketanserin, Ritanserin 100 μM; RF001 1 mM
T9 construct: measured against >50 native kinases quantified in HEK293T soluble proteomes; endogenous in cells; host or cells: HEK293T soluble proteome
T9 sequence (Q13555 whole entry): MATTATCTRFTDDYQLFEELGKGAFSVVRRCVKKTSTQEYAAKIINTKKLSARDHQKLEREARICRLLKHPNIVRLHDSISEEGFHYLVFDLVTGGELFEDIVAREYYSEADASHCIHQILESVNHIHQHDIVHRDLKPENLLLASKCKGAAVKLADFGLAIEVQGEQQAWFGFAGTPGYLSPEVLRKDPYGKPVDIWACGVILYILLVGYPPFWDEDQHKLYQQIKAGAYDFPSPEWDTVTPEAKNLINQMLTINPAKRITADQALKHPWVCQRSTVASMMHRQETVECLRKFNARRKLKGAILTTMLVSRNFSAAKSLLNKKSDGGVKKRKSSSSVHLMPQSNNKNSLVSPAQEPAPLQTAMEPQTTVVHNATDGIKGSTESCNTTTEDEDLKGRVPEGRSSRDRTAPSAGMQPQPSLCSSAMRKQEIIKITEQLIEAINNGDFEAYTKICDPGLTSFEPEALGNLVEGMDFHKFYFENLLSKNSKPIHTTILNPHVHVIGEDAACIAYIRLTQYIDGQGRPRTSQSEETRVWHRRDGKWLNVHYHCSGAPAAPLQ
Protocol: as §1, §2

T1 sequence (Q15418 whole entry): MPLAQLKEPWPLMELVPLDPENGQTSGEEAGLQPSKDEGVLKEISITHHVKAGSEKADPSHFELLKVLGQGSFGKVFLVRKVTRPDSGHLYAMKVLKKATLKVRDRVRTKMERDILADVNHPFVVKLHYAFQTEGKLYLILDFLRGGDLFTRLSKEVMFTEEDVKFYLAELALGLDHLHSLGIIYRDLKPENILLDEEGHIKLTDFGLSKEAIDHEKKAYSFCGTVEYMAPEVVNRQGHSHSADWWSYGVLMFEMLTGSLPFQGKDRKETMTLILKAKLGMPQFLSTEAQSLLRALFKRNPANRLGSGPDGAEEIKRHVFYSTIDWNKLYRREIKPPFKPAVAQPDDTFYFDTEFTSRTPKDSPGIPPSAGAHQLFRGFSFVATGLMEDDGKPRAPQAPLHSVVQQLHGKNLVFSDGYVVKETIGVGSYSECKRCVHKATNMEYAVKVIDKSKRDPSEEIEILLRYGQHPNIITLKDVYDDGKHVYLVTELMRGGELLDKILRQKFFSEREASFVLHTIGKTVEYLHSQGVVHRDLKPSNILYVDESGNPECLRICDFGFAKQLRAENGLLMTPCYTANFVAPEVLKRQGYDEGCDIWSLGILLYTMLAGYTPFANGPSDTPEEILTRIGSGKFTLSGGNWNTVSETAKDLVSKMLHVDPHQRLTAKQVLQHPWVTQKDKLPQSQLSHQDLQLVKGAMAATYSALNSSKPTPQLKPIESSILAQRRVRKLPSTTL

SILAC ratio, KS6A1 probe-modified peptide [1] | SILAC ratio, KS6B1 probe-modified peptide [2] | SILAC ratio, SMG1 probe-modified peptide [3] | SILAC ratio, MP2K6 probe-modified peptide [4] | SILAC ratio, IRAK1 probe-modified peptide [5] | SILAC ratio, FER probe-modified peptide [6] | SILAC ratio, CDK2 probe-modified peptide [7] | SILAC ratio, E2AK2 probe-modified peptide [8] | SILAC ratio, KCC2G probe-modified peptide [9] | Compound
1.3 | 1.0 | 1.0 | 1.1 | 2.2 | 1.2 | 0.7 | 1.2 | 1.6 | Fc1ccc(C(=C2CCNCC2)c2ccc(F)cc2)cc1 [RF001, 4-(Bis(4-fluorophenyl)methylene) piperidine]
1.4 | 1.2 | 1.3 | 1.4 | 1.4 | 1.4 | 1.6 | 1.3 | 1.5 | O=C(c1ccc(F)cc1)C1CCN(CCn2c(=O)[nH]c3ccccc3c2=O)CC1 [Ketanserin]

Compound | SILAC ratio, KS6A1 probe-modified peptide [1] | SILAC ratio, KS6B1 probe-modified peptide [2] | SILAC ratio, SMG1 probe-modified peptide [3] | SILAC ratio, MP2K6 probe-modified peptide [4] | SILAC ratio, IRAK1 probe-modified peptide [5] | SILAC ratio, FER probe-modified peptide [6] | SILAC ratio, CDK2 probe-modified peptide [7] | SILAC ratio, E2AK2 probe-modified peptide [8] | SILAC ratio, KCC2G probe-modified peptide [9]
Cc1nc2sccn2c(=O)c1CCN1CCC(=C(c2ccc(F)cc2)c2ccc(F)cc2)CC1 [Ritanserin] | 2.1 | 1.3 | 1.7 | 2.2 | 2.6 | 7.9 | 2.9 | 2.8 | 2.7

From patent US12643867B2, “Compositions and uses thereof” (University of Virginia Patent Foundation, priority 2017, dated 2026)
